The values that follow come from patent publication US20100260691A1, “Aqueous compositions containing a hydrophobic material” (priority 2006, published 2010).

The nature of series [1]: Visual clarity of aqueous concentrate and dilutions. The note with it: for appearance of dilutions with water: dilution ratios as stated in each example; for appearance / dissolution of the aqueous concentrate: undiluted composition as prepared. In kind it is physicochemical. From the text:
FIG. 2 summarizes a method that can be used for optimization. Once the components are identified, optimization may be performed by preparing several mixtures of the components in different ratios and observing the phase behavior. Plot the compositions producing clear systems for concentrate and dilutions and identify regions in the triangular composition space. For a fixed amount of the hydrophobic material or active ingredient, vary the ratios of the surfactant and polymer in water. Alternately, vary the concentration of the hydrophobic material or active ingredient, polymer and surfactant in different ratio and make up to 100% in water and plot the compositions providing clear systems for the concentrate and for dilutions.

Series [2] in a line: Particle size by Dynamic Light Scattering. In kind it is physicochemical. To be noted: active in SDS/PVP K-30 aqueous systems and dilutions. From the text: The hydrophobic material is present in the composition as an emulsion or a dispersion. The particle size of the hydrophobic material in the composition typically falls within the range of from about 5 to 1000 nm, more particularly from about 5 to 500 nm, still more particularly from about 10 to 100 nm and in accordance with certain embodiments from about 10 to 30 nm. Particle size refers to average particle radius and can be determined using dynamic light scattering techniques and equipment known to those of skill in the art. The compositions in accordance with certain aspects of the invention are visually clear due primarily to the small particle size of the hydrophobic material. Optical clarity can be measured using a turbidimeter or nephelometer.

The nature of series [3]: Solubility / solubilization of Triclosan in water and SDS solutions. In kind it is physicochemical. To be noted: SDS alone, no PVP. Here is the method:
This concentrate was serially diluted at 3/10, 2.5/10, 2/10, 1.5/10, 1/10, 0.8/10, 0.6/10, 0.4/10 with water. […] Minimum amount of SDS required to solubilize 0.075%-0.09% Triclosan was ˜0.4-0.5% range SDS. This corresponds to about two-three times the CMC for SDS, which was determined to be about 0.17%.

For series [4] the following is noted: cited from earlier work.
The nature of series [5]: Critical micelle concentration by surface tension. In kind it is physicochemical. To be noted: in water. An excerpt:
Suitable polymer is selected by first determining the surface tension concentration profile of the surfactant and evaluating the CMC. This is done by preparing standard solutions of the surfactant in water at different concentration and dilutions and measuring surface tension of the solutions and plotting the data as shown in FIG. 1. Surface tension may be measured using a typical Tensiometer [DuNuoy Tensiometer, Surface Tensiomat, Fisher with a platinum ring with a mean circumference of 6 cm, and a ring/wire radius ratio of 53.8. As an example: starting with 1% solution of a typical surfactant like SDS, serial dilutions are made by diluting appropriate amounts of the 1% stock solution and diluting to 0.5%, 0.2%, 0.1% and 0.05, 0.02, 0.01, 0.005, 0.002, by adding appropriate amounts of de-ionized water to a weighed quantity of the stock solution. FIG. 1 is a plot of concentration in moles per liter of the SDS and surface tension at 25° C.

For `COC(=O)c1ccc(O)cc1` [methylparaben], in series [1], the “appearance of dilutions with water” value was “clear solutions” and the “appearance / dissolution of the aqueous concentrate” value is on record as “clear solutions”.
With `Oc1cc(Cl)ccc1Oc1ccc(Cl)cc1Cl` [Triclosan], the “particle size (radius)” value in series [2] is given as 10-30 nm. Also, in series [3], the “Minimum amount of SDS required to solubilize 0.075%-0.09% Triclosan” value is listed as 0.4-0.5 % SDS, the “Minimum amount of SDS to solubilize 0.3% Triclosan in water” value is roughly 2 % SDS and the “level of SDS required to solubilize 3% Triclosan” value was 25%. Moreover, the solubility in water in series [4] is 10 ppm.
In the case of `CCCCCCCCCCCCOS(=O)(=O)[O-].[Na+]` [SDS, sodium dodecylsulfate], the CMC result in series [5] is listed as “about 0.17%”.
Turning to `CCOC(=O)c1ccc(O)cc1` [ethylparaben], in series [1], the “appearance of dilutions with water” value is “clear solutions” and the “appearance / dissolution of the aqueous concentrate” value was “clear solutions”.
